Data on eight molecules can be found in ChEMBL document CHEMBL1154343, “Synthesis and biological evaluation of pyrrolopyridazine derivatives as novel HER-2 tyrosine kinase inhibitors” (Bioorg Med Chem Lett, 2009).

The target in assay [1] is T1, Receptor tyrosine-protein kinase erbB-2 (Homo sapiens, UniProt P04626). The assay is described as follows: Inhibition of HER2 in human SKBR3 cells by HTRF assay. (In general: Time-resolved FRET reads energy transfer from a long-lived donor to a nearby acceptor.)
The target in assay [2] is T2, Epidermal growth factor receptor (Homo sapiens, UniProt P00533). Briefly: Inhibition of EGFR in human A431 cells by HTRF assay.
Assay [3] has as its target T2, Epidermal growth factor receptor. The assay is described as follows: Inhibition of EGFR by HTRF assay.
Assay [4] addresses T1, Receptor tyrosine-protein kinase erbB-2. Briefly: Inhibition of HER2 by HTRF assay.

T1 sequence (P04626 whole entry): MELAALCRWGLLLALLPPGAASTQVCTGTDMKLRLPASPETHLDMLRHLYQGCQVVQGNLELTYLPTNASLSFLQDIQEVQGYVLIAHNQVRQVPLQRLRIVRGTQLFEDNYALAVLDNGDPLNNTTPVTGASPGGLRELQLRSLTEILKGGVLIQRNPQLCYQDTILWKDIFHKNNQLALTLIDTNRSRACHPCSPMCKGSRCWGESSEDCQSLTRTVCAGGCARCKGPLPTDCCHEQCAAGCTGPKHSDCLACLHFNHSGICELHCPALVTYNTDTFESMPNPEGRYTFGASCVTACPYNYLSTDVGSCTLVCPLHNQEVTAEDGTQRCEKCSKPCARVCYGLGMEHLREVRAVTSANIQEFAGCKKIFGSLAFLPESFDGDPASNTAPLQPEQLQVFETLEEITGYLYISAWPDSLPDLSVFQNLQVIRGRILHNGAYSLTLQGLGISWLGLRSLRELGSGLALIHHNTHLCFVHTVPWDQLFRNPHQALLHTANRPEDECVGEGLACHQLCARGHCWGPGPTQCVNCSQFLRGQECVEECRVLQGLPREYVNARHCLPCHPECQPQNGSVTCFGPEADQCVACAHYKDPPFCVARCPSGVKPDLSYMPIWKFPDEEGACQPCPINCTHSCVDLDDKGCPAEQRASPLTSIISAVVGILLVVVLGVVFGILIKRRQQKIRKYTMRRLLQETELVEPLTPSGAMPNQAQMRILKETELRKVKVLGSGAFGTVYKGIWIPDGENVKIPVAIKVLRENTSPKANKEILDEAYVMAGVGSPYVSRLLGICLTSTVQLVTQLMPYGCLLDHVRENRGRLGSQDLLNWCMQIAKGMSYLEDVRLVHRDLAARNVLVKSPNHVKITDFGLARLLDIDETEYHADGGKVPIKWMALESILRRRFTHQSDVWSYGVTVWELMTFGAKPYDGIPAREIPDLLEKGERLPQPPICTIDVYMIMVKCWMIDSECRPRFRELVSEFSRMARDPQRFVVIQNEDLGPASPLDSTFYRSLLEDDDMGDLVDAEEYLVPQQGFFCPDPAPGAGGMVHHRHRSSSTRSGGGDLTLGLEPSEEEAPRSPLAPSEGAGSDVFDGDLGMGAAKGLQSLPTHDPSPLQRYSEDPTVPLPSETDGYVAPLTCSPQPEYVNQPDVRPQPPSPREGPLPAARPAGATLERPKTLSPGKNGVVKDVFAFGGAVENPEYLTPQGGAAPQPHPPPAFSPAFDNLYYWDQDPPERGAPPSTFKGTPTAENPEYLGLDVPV
T2 sequence (P00533 whole entry): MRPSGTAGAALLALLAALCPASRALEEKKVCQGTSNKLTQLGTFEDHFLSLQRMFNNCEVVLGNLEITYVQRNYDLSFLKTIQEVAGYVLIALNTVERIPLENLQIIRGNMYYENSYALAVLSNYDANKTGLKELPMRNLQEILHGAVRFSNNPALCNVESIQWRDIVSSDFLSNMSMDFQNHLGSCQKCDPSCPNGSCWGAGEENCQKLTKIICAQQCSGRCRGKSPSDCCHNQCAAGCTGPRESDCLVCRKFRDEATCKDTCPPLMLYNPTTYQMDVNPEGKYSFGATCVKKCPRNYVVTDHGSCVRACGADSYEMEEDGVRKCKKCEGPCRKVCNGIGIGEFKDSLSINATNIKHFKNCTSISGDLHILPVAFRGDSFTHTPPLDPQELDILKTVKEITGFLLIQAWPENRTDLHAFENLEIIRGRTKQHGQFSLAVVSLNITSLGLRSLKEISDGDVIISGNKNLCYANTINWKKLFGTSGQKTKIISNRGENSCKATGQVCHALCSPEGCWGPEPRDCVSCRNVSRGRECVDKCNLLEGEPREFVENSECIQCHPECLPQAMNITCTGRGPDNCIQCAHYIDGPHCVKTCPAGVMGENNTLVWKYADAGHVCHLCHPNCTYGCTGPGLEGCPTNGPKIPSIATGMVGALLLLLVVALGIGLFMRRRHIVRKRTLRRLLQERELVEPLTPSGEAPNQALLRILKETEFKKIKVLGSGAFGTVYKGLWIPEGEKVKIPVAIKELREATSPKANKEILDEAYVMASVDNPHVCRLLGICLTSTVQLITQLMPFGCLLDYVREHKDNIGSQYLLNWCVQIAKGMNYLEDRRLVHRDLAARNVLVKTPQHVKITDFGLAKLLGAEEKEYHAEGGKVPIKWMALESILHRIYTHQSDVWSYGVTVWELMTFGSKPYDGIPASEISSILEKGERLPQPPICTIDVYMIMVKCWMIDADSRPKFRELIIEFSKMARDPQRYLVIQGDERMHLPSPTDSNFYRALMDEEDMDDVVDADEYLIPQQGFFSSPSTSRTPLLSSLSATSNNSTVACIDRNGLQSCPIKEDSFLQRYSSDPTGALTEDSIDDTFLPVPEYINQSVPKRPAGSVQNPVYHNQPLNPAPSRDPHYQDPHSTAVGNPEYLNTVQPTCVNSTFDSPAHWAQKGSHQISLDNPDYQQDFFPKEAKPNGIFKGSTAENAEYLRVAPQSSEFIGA

The IC50 is the concentration at which inhibition is half-maximal. On to `CCN(CC)CCNC(=O)c1cc2cnnc(Nc3ccc(OCc4cccc(F)c4)c(Cl)c3)c2[nH]1`, for which the IC50 in assay [1] is 3840 nM; in assay [2] it was 77200 nM; in assay [3], above 10000 nM.

As to `O=C(NCCN1CCCC1)c1cc2cnnc(Nc3ccc(OCc4cccc(F)c4)c(Cl)c3)c2[nH]1`, the IC50 was 620 nM in assay [1], 15100 nM in assay [2] and above 10000 nM in assay [3].

As to `Cc1c(C(=O)NCCN2CCOCC2)[nH]c2cnnc(Nc3ccc(OCc4cccc(F)c4)c(Cl)c3)c12`, the half-inhibitory concentration (IC50) in assay [1] is above 5000 nM; in assay [4], 4 nM; in assay [2], 12700 nM; in assay [3], 5000 nM.

Regarding `Cc1c(C(=O)NCCN2CCOCC2)[nH]c2cnnc(Nc3ccc(OCc4ccccn4)c(Cl)c3)c12`, the IC50 in assay [1] is above 5000 nM.

For `CCOC(=O)c1[nH]c(C)c2cnnc(Nc3ccc(OCc4cccc(F)c4)c(Cl)c3)c12`, the IC50 in assay [1] is 934 nM; in assay [2] it was 1210 nM; in assay [3], above 10000 nM.

Take `Cc1c(C(=O)NCCCN2CCN(C)CC2)[nH]c2cnnc(Nc3ccc(OCc4cccc(F)c4)c(Cl)c3)c12`: the IC50 in assay [1] was 2240 nM; in assay [2], 980 nM; in assay [3] it was above 10000 nM.

Take `Cc1c(C(=O)NCCN2CCN(C)CC2)[nH]c2cnnc(Nc3ccc(OCc4cccc(F)c4)c(Cl)c3)c12`: the values for the IC50 in assay [1], in assay [2] and in assay [3] were 843 nM, 257 nM and above 10000 nM, respectively.

As to `CCN(CC)CCNC(=O)c1[nH]c2cnnc(Nc3ccc(OCc4cccc(F)c4)c(Cl)c3)c2c1C`, the IC50 in assay [1] is 960 nM; in assay [4] it was 7 nM; in assay [2] it was 1160 nM; in assay [3] it was 1280 nM.
